Results as given in patent publication US20180371551A1, “MAT2A INHIBITORS FOR TREATING MTAP NULL CANCER” (Agios Pharmaceuticals, Inc., priority 2015, published 2018).

What was measured:
[1] = tested on: HCT116 MTAP wt vs. HCT116 MTAP−/− cells; assay: EPZ015666 dose response, growth of HCT116 isogenic pair; format: cell-based; details: 5 days, titrated from 20 μM top dose
Excerpt: (§1) FIGS. 2A-F. PRMT5 is selectively essential in MTAP-null cells upon genetic ablation but not pharmacologic targeting. Immunoblot analysis of the indicated proteins in HCT116 MTAP^−/− and HCT116 MTAP wt cells stably expressing PRMT5 shRNA and p-LVX empty vector control (EV). (B) PRMT5 is selectively essential in MTAP-null cells in vitro. Percent growth of HCT116 wt and HCT116 MTAP^−/− cells upon PRMT5 knockdown (+dox), with or without PRMT5 wt or R368A mutant rescue, versus no knockdown (no dox) control in a 10-day soft agar colony growth assay. Colonies were stained with crystal violet and then quantified using Li-Cor (mean±SD, n=3). (C) Immunoblot analysis of the indicated proteins in HCT116 MTAP^−/− and HCT116 MTAP wt cells stably expressing PRMT5 shRNA and shRNA-resistant PRMT5 wt cDNA or PRMT5 R368A catalytically-dead mutant cDNA. (D) Immunoblot analysis of symmetric di-methylarginine marks in HCT116 MTAP^−/− and HCT116 MTAP wt cells stably expressing PRMT5 shRNA and p-LVX empty vector control (EV), or PRMT5 shRNA and shRNA-resistant PRMT5 wt cDNA or PRMT5 R368A catalytically-dead mutant cDNA. (E) Dose response analysis with EPZ015666 titrated from 20 μM top dose in HCT116 MTAP wt vs. HCT116 MTAP^−/− cells. Cells were treated with EPZ015666 for 5 days and their response to the compound is measured as fold growth of treated cells vs. untreated control (mean±SD, n=3). […]

[2] = tested on: PRMT5-dependent di-methylarginine marks in HCT116 isogenic pair; assay: Immunoblot of PRMT5-dependent di-methylarginine marks; format: cell-based; details: MTAP−/− and wt HCT116 cells, 5 days
Excerpt: as §1

PRMT5 = molecular target: T1, PRMT5 (Homo sapiens, UniProt O14744); assay: N-methyltransferase in vitro activity assay; format: biochemical
T1 construct: purchased Eurofins CEREP Panlabs
T1 sequence (O14744 whole entry): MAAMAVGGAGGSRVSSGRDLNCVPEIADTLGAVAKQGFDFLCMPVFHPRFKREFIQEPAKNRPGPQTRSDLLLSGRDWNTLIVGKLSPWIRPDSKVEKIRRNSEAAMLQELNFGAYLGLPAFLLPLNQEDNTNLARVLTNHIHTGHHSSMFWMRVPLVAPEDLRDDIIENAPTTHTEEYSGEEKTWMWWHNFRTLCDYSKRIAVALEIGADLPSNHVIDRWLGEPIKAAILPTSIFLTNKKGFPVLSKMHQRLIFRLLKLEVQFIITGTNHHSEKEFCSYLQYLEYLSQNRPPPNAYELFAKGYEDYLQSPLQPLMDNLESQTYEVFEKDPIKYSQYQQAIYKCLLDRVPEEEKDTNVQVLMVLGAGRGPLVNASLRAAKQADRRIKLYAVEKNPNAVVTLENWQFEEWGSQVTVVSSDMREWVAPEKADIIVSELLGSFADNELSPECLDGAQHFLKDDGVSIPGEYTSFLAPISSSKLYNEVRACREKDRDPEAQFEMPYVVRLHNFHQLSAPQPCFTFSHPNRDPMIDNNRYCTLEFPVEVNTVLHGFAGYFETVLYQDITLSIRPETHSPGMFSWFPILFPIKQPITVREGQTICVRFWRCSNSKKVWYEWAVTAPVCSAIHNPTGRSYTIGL
T1 sequence (Q9BQA1 whole entry partner): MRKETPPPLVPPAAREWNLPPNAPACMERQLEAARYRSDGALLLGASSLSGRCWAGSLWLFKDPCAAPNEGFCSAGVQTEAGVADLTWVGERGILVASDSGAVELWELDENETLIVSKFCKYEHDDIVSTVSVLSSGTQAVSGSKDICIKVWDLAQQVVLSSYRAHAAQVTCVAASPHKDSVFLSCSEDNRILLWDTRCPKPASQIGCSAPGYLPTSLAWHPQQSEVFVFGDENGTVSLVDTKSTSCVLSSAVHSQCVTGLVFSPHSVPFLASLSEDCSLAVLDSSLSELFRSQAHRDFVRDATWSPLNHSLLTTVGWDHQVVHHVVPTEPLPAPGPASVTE
Description: MTA has been reported to inhibit activity of protein methyltransferases (Enouf et al., 1979). To test this notion directly, we performed an in vitro biochemical screen assessing enzyme activity of 33 different N-methyltransferases following treatment with 10 μM and 100 μM MTA (FIG. 4A). […] Next, we analyzed the MTA Ki for PRMT5, PRMT4, and a diverse subset of methyltransferases (FIG. 4C). In vitro screening of methyltransferase inhibition by MTA, as well as SAM Km measurements, was conducted using a panel of methyltransferase assays at Eurofins CEREP Panlabs.

Compound	MTAP selectivity of growth inhibition [1]	MTAP selectivity of growth inhibition ([1]; listed as EPZ-015666)	PRMT5 activity inhibition (PRMT5-dependent di-methylarginine marks in total cell lysates) [2]	IC50 (PRMT5; biochemical assay, read-out: PRMT5 IC50 for MTA) [µM]	Ki (PRMT5; read-out: MTA Ki for PRMT5) [nM]
O=C(NC[C@H](O)CN1CCc2ccccc2C1)c1cc(NC2COC2)ncn1 [EPZ015666]	not selective for the MTAP-deficient genetic background	did not lead to selective growth inhibition in MTAP-null cells	equal degree of PRMT5 activity inhibition		
CSC[C@H]1O[C@@H](n2cnc3c(N)ncnc32)[C@H](O)[C@@H]1O [MTA, methylthioadenosine]				3	460
